Values joined by “and” are separate entries in the source; they are usually repeats but may differ in a detail not shown here. Identical values can stand only once. Like-named read-outs stand apart in the source and are kept apart here.
Assay: Pharmacokinetics after single oral administration to rats
Type: in vivo, rat
Conditions: for AUC(0-inf) / Cmax / Tmax / AUC(0-t) / half-life: po; for half-life: read-out: Terminal t1/2, Mean (converted); for AUC: read-out: AUC48
Procedure: Experiments were performed at ChemPartner, Shanghai, China and approved by Institutional Ethics Committee (IEC) of ChemPartner. Male Wistar 10–12 weeks old rats with body weights of 185–220 g and male New Zealand rabbits with body weights of 2.0–2.3 kg were purchased from Shanghai SLAC Laboratory Animal Co., Ltd. MT-SYK-03 was administered to the three groups of rats (six rats per group) via oral gavage at 10 mL/kg concentration, and in rabbits 5 mL/kg concentration. Blood samples were kept on ice and centrifuged (2000 g, 4 ℃, 5 min) within 15 min post sampling.

[1] = male, Wistar, rat, plasma, rats, single oral 30 mg/kg
[2] = male, Wistar, rat, plasma, rats, single oral 100 mg/kg
[3] = male, Wistar, rat, plasma, rats, single oral 200 mg/kg

COc1cc(Nc2ncnc(Nc3cc4c(cn3)NC(=O)C(C)(C)O4)n2)cc(OC)c1OC [MT-SYK-03]
concentration at 2 h (male, Wistar, rat, plasma, oral, 200 mg/kg, Table S8, 200 mg/kg PO, male Wistar rats, individual Rat#13-18, read-out: Plasma concentration): 1180 ng/mL
concentration at 2 h (male, Wistar, rat, plasma, oral, 200 mg/kg, Table S8, 200 mg/kg PO, male Wistar rats, mean of Rat#13-18, read-out: Plasma concentration, Mean): 1040 ng/mL
concentration at 4 h (male, Wistar, rat, plasma, oral, 200 mg/kg, Table S8, 200 mg/kg PO, male Wistar rats, 4 h, mean of Rat#13-18): 725 ng/mL
concentration at 8 h (male, Wistar, rat, plasma, oral, 200 mg/kg, Table S8, 200 mg/kg PO, male Wistar rats, 8 h, mean of Rat#13-18): 206 ng/mL
concentration at 24 h (male, Wistar, rat, plasma, oral, 200 mg/kg, Table S8, 200 mg/kg PO, male Wistar rats, 24 h, mean of Rat#13-18): 4.99 ng/mL
concentration at 48 h (male, Wistar, rat, plasma, oral, 200 mg/kg, Table S8, 200 mg/kg PO, male Wistar rats, 48 h, mean of Rat#13-18, read-out: Plasma concentration, Mean): 5.44 ng/mL
AUC(0-inf) (male, Wistar, rat, plasma, 30 mg/kg, rats, single oral 30 mg/kg, read-out: AUCinf): 2420 ± 945 ng·h/mL
Cmax (male, Wistar, rat, plasma, 30 mg/kg, rats, single oral 30 mg/kg, read-out: Cmax): 416 ± 114 ng/mL
Tmax (male, Wistar, rat, plasma, 30 mg/kg, rats, single oral 30 mg/kg, read-out: Tmax): 1.5 ± 0.548 h
Tmax (male, Wistar, rat, plasma, 100 mg/kg, Table S6, 100 mg/kg PO, male Wistar rats, plasma, individual Rat#1-6, read-out: Tmax): 2 h
AUC(0-inf) (male, Wistar, rat, plasma, 100 mg/kg, Table S6, 100 mg/kg PO, male Wistar rats, plasma, mean of Rat#1-6, read-out: AUCINF, Mean): 2420 ng·h/mL
AUC(0-t) (male, Wistar, rat, plasma, 100 mg/kg, Table S6, 100 mg/kg PO, male Wistar rats, plasma, mean of Rat#1-6, read-out: AUClast, Mean): 2340 ng·h/mL
Cmax (male, Wistar, rat, plasma, 100 mg/kg, Table S6, 100 mg/kg PO, male Wistar rats, plasma, mean of Rat#1-6, read-out: Cmax, Mean): 416 ng/mL
half-life (male, Wistar, rat, plasma, 100 mg/kg, Table S6, 100 mg/kg PO, male Wistar rats, plasma, mean of Rat#1-6): 5.53 h
Tmax (male, Wistar, rat, plasma, 100 mg/kg, Table S6, 100 mg/kg PO, male Wistar rats, plasma, mean of Rat#1-6, read-out: Tmax, Mean): 1.5 h
AUC(0-inf) (male, Wistar, rat, plasma, 100 mg/kg, Table S7, 100 mg/kg PO, male Wistar rats, plasma, individual Rat#7-12, read-out: AUCINF): 4250 ng·h/mL
AUC(0-t) (male, Wistar, rat, plasma, 100 mg/kg, Table S7, 100 mg/kg PO, male Wistar rats, plasma, individual Rat#7-12, read-out: AUClast): 4240 ng·h/mL
Cmax (male, Wistar, rat, plasma, 100 mg/kg, Table S7, 100 mg/kg PO, male Wistar rats, plasma, individual Rat#7-12, read-out: Cmax): 822 ng/mL
Tmax (male, Wistar, rat, plasma, 100 mg/kg, Table S7, 100 mg/kg PO, male Wistar rats, plasma, individual Rat#7-12, read-out: Tmax): 1 h
AUC(0-inf) (male, Wistar, rat, plasma, 100 mg/kg, Table S7, 100 mg/kg PO, male Wistar rats, plasma, mean of Rat#7-12, read-out: AUCINF, Mean): 4270 ng·h/mL
AUC(0-t) (male, Wistar, rat, plasma, 100 mg/kg, Table S7, 100 mg/kg PO, male Wistar rats, plasma, mean of Rat#7-12, read-out: AUClast, Mean): 4260 ng·h/mL
Cmax (male, Wistar, rat, plasma, 100 mg/kg, Table S7, 100 mg/kg PO, male Wistar rats, plasma, mean of Rat#7-12, read-out: Cmax, Mean): 864 ng/mL
half-life (male, Wistar, rat, plasma, 100 mg/kg, Table S7, 100 mg/kg PO, male Wistar rats, plasma, mean of Rat#7-12): 4.06 h
Tmax (male, Wistar, rat, plasma, 100 mg/kg, Table S7, 100 mg/kg PO, male Wistar rats, plasma, mean of Rat#7-12, read-out: Tmax, Mean): 1 h
AUC(0-inf) (male, Wistar, rat, plasma, 100 mg/kg, rats, single oral 100 mg/kg, read-out: AUCinf): 4270 ± 608 ng·h/mL
Cmax (male, Wistar, rat, plasma, 100 mg/kg, rats, single oral 100 mg/kg, read-out: Cmax): 864 ng/mL and 1.42 µM
Tmax (male, Wistar, rat, plasma, 100 mg/kg, rats, single oral 100 mg/kg, read-out: Tmax): 1 h
AUC(0-inf) (male, Wistar, rat, plasma, 200 mg/kg, Table S8, 200 mg/kg PO, male Wistar rats, plasma, individual Rat#13-18, read-out: AUCINF): 7500 ng·h/mL
AUC(0-t) (male, Wistar, rat, plasma, 200 mg/kg, Table S8, 200 mg/kg PO, male Wistar rats, plasma, individual Rat#13-18, read-out: AUClast): 7480 ng·h/mL
Cmax (male, Wistar, rat, plasma, 200 mg/kg, Table S8, 200 mg/kg PO, male Wistar rats, plasma, individual Rat#13-18, read-out: Cmax): 1180 ng/mL
Tmax (male, Wistar, rat, plasma, 200 mg/kg, Table S8, 200 mg/kg PO, male Wistar rats, plasma, individual Rat#13-18, read-out: Tmax): 2 h
AUC(0-inf) (male, Wistar, rat, plasma, 200 mg/kg, Table S8, 200 mg/kg PO, male Wistar rats, plasma, mean of Rat#13-18, read-out: AUCINF, Mean): 7320 ng·h/mL
AUC(0-t) (male, Wistar, rat, plasma, 200 mg/kg, Table S8, 200 mg/kg PO, male Wistar rats, plasma, mean of Rat#13-18, read-out: AUClast, Mean): 7270 ng·h/mL
Cmax (male, Wistar, rat, plasma, 200 mg/kg, Table S8, 200 mg/kg PO, male Wistar rats, plasma, mean of Rat#13-18, read-out: Cmax, Mean): 1280 ng/mL
half-life (male, Wistar, rat, plasma, 200 mg/kg, Table S8, 200 mg/kg PO, male Wistar rats, plasma, mean of Rat#13-18): 5.08 h
Tmax (male, Wistar, rat, plasma, 200 mg/kg, Table S8, 200 mg/kg PO, male Wistar rats, plasma, mean of Rat#13-18, read-out: Tmax, Mean): 1.33 h
AUC(0-inf) (male, Wistar, rat, plasma, 200 mg/kg, rats, single oral 200 mg/kg, read-out: AUCinf): 7320 ± 1460 ng·h/mL
Cmax (male, Wistar, rat, plasma, 200 mg/kg, rats, single oral 200 mg/kg, read-out: Cmax): 1280 ng/mL and 2.1 µM
Tmax (male, Wistar, rat, plasma, 200 mg/kg, rats, single oral 200 mg/kg, read-out: Tmax): 1.33 ± 0.516 h
k el [1]: 4.44e-05 s⁻¹
AUC [1]: 2340 ± 979 ng·h/mL
k el [2]: 5.28e-05 s⁻¹
AUC [2]: 4260 ± 621 ng·h/mL
k el [3]: 4.72e-05 s⁻¹
AUC [3]: 7270 ± 1490 ng·h/mL
Average plasma concentration after administration in rats (rats, PO): 200 to 700 nM
MRT24 (rats, single oral 30 mg/kg): 4.26 ± 0.57 h
τ1/2 (rats, single oral 30 mg/kg): 5.53 ± 2.38 h
MRT24 (rats, single oral 100 mg/kg): 4.12 ± 0.56 h
τ1/2 (rats, single oral 100 mg/kg): 4.06 ± 1.49 h
MRT24 (rats, single oral 200 mg/kg): 4.89 ± 1.63 h
τ1/2 (rats, single oral 200 mg/kg): 5.08 ± 2.39 h
